The nature of data set [1]: KM(app) and Vmax determinations (Eadie-Hofstee plots). The data set is classed as in vitro ADME, rat. Particulars: 15 min, 37 C. Here is the method: KM(app) and VMax Determinations. The KM(app)-Vmax for the hydrolysis of p-NP-glc and p-NP-gal were determined using pooled cecal homogenates (200 mL) as described above. A range of substrate (56-1000 micromolar; final volume 2.25 mL) concentrations, spanning their apparent KM, was used for each reaction. The amount of cecal homogenate used was 0.04 mL. Velocities were obtained, in duplicate, at 37 °C in a shaking water bath and the reaction stopped by addition of 0.2 N NaOH (0.25 mL) after 15 min. Release of p-nitrophenol was measured spectrophotometrically at 403 nm. Eadie-Hofstee plots were used to determine the KM(app) (micromolar) and Vmax (micromolar/min/g) of both reactions. The wet weight (g), measured immediately after removal and pooling, was used throughout.
Again, cecal contents from four rats were pooled, weighed, diluted (100 mL, 0.01 M phosphate buffer, pH 7.0) and homogenized. A range of substrate concentrations (0.5-48 micromolar, final volume 2.5 mL) spanning the apparent KM, was used for each reaction. The amount of cecal homogenate used was 0.8 mL. Reactions were run, in duplicate, at 37°C in a shaking water bath. After 15 min, the reactions were stopped by removing aliquots (0.3 mL) and quenching them with MeOH (4.7 mL). […] Again, Eadie-Hofstee plots were used to determine the KM(app) and VMax.

The nature of data set [2]: Rate of hydrolysis in homogenized distal small intestine contents. Particulars: for Sp. act. / Tot. act.: DSI contents, 37 C.
Description: (§1) (The entire small intestine was divided into two, equal length segments to give PSI and DSI.) Gastrointestinal contents were obtained from male, Sprague-Dawley rats (300-400 g) which had been maintained on a stock diet (Purina rat chow) and water ad libitum. The intestinal contents of each section were pooled from four animals for each assay. […] Following removal, the contents were quickly weighed, then diluted to 100 milliliters (stomach, PSI, and DSI) or 200 milliliters (cecum) with cold 0.01 M phosphate buffer, pH 7.0. […] Homogenates were then stored on ice (ca 30 min). […] The reaction was run at 37 °C in a shaking water bath. The reaction was stopped after 10, 20, or 30 min by addition of 0.2 N NaOH (0.25 milliliters).
(§2) Stomach and PSI contents were diluted to 50 mL with 0.01 M phosphate buffer, pH 7.0, DSI contents to 25 mL, and cecal contents to 200 mL, prior to homogenization. The homogenates (2.1 mL of stomach, PSI, and DSI and 1.7 mL of cecum) were added to the appropriate substrate solution (0.01 M phosphate buffer, pH 7.0) to give 1.0 mM substrate in a total volume of 2.5 mL. At various times up to 30 min, aliquots (0.3 mL) were removed and quenched with MeOH (4.7 mL). After centrifugation (5,000 g, 10 min), the samples were diluted (1:1) with 0.01 M KH2PO4 and 20 microliters of the resulting solution was injected directly onto the HPLC column for analysis.
Data set [3] can be described thus: Rate of hydrolysis in homogenized stomach contents. Particulars: 37 C.
The nature of data set [4]: Rate of hydrolysis in homogenized cecal contents. Particulars: for Sp. act. / Tot. act.: cecal contents, 37 C.
Description: as §1, §2
A short description of data set [5]: Rate of hydrolysis in homogenized proximal small intestine contents. Particulars: PSI contents, 37 C.
Data set [6] can be described thus: Recovery of steroid glycoside and free steroid from intestinal contents and tissues after intragastric administration. The data set is classed as in vivo, Sprague-Dawley rats. Particulars: rat, in vivo, po. Here is the method:
Male, Sprague-Dawley rats (ca 250 g) were maintained on laboratory rat chow and water ad lib. These rats were fasted overnight (16 hr.) prior to administration of glucoside or free steroid. Water bottles were removed from the cages at least 30 min prior to drug administration. Prednisolone glucoside, 2, (7.5 mg) or dexamethasone glucoside, 1, (7.5 mg) was administered by gastric intubation as a solution (0.5 mL) of water/95% ethanol (3:1). Prednisolone, 4, (5.25 mg) or dexamethasone, 3, (5.1 mg) was administered as a solution (0.5 mL) of water/95% ethanol (1:1). After the appropriate interval of time -3, 4, 5 or 6 hr.- the animals were sacrificed by carbon dioxide anesthesia followed by thoractomy. The small intestine and cecum were removed and cut into segments. Contents were separated from the tissues by rinsing the segments with cold, 0.9% saline (5.0 mL). The contents were immediately diluted to 30 mL with methanol. The tissues were suspended in 0.01 M KH2P04 (5.0 mL). Then an internal standard, either prednisolone, 4, or dexamethasone, 3, depending on the experimental steroid, was added to all the samples. Both the contents and tissues were then homogenized with a Polytron Homogenizer (Brinkman Inst. Co.) at med. speed for 1-2 min. The contents were then diluted to 40 mL total volume with methanol. The tissues were diluted to 25 mL total volume with methanol. All the samples were centrifuged (5,000 g, 15 min) and then the supernatant solutions were passed through membrane filters (0.45 micrometers, Versapor 800). The samples (1.4 mL) were then diluted with 0.01 M KH2PO4 (0.6 mL) and 20 microliters of the resulting solution injected directly onto the HPLC column for analysis.

[7] abbreviates: p-nitrophenyl substrate 56-1000 micromolar, 0.04 mL cecal homogenate, p-nitrophenol at 403 nm.
Setting [8] is: 1.0 mM prodrug, release of free steroid by HPLC.
The mark [9] stands for this setting: prodrug 0.5-48 micromolar, 0.8 mL cecal homogenate, release of free steroid by HPLC, listed as glucoside 7.
Setting [10] is: prodrug 0.5-48 micromolar, 0.8 mL cecal homogenate, release of free steroid by HPLC, listed as galactoside 11.
Where [11] appears, read: prodrug 0.5-48 micromolar, 0.8 mL cecal homogenate, release of free steroid by HPLC, listed as galactoside 12.
Where [12] appears, read: prodrug 0.5-48 micromolar, 0.8 mL cecal homogenate, release of free steroid by HPLC, listed as galactoside 9.
Where [13] appears, read: prodrug 0.5-48 micromolar, 0.8 mL cecal homogenate, release of free steroid by HPLC, listed as galactoside 10.
[14] abbreviates: pH 7.0, 1.0 mM p-nitrophenyl substrate, p-nitrophenol at 403 nm.
[15] abbreviates: pH ca 5.0, 1.0 mM p-nitrophenyl substrate, p-nitrophenol at 403 nm.

With `O=[N+]([O-])c1ccc(O[C@@H]2O[C@H](CO)[C@H](O)[C@H](O)[C@H]2O)cc1` [p-NP-gal, p-nitrophenyl-beta-D-galactoside, reference compound], in data set [1] (setting [7]), the Km came out at 166 µM and the Vmax amounted to 1233 µM/min/g.

For the compound `CC12CCC(=O)C=C1CCC1C3CCC(O)(C(=O)COC4OC(CO)C(O)C(O)C4O)C3(C)CC(O)C12F` [Compound 7, 9 alpha-Fluoro-11 beta, 17 alpha-dihydroxy-3, 20-dioxopregna-4-en-21-yl beta-D-glucopyranoside], the Sp. act. in data set [2] (setting [8]) turned out to be 33.0 nmoles/min/g wet weight; in data set [3] (setting [8]), 7.7 nmoles/min/g wet weight; in data set [4] (setting [8]), 42.0 nmoles/min/g wet weight; in data set [5] (setting [8]), 12.3 nmoles/min/g wet weight. In addition, the Tot. act. in data set [2] (setting [8]) came out at 0.43 µmol/min; in data set [3] (setting [8]) it was 0.14 µmol/min; in data set [4] (setting [8]), 1.4 µmol/min; in data set [5] (setting [8]) it was 0.08 µmol/min. Moreover, the “hydrolysis by cecal contents, comparison in words” value in data set [4] (cecal content homogenates) is reported as “hydrolyzed more slowly than the other glucoside prodrugs”. Further, the Km in data set [1] (setting [9]) is 4.4 µM. In addition, in data set [1] (setting [9]), the Vmax is 2.4 µM/min/g.

For `CC12CCC(=O)C=C1CCC1C2C(O)CC2(C)C1CCC2(O)C(=O)COC1OC(CO)C(O)C(O)C1O` [Compound 11, 11 beta, 17 alpha-Dihydroxy-3, 20-dioxopregna-4-en-21-yl beta-D-galactopyranoside], the Sp. act. in data set [2] (setting [8]) came out at 110 nmoles/min/g wet weight; in data set [3] (setting [8]), 12.5 nmoles/min/g wet weight; in data set [4] (setting [8]), 592 nmoles/min/g wet weight; in data set [5] (setting [8]), 42.5 nmoles/min/g wet weight. The Tot. act. in data set [2] (setting [8]) stood at 1.6 µmol/min; in data set [3] (setting [8]), 0.02 µmol/min; in data set [4] (setting [8]) it was 11.9 µmol/min; in data set [5] (setting [8]) it was 0.02 µmol/min. The Km in data set [1] (setting [10]) came out at 16.7 µM. Besides, the maximal velocity (Vmax) in data set [1] (setting [10]) was 10.2 µM/min/g.

Consider `CC12CCC(=O)C=C1CCC1C3CCC(O)(C(=O)COC4OC(CO)C(O)C(O)C4O)C3(C)CC(O)C12F` [Compound 12, 9 alpha-Fluoro-11 beta, 17 alpha-dihydroxy-3, 20-dioxopregna-4-en-21-yl beta-D-galactopyranoside], for which the Sp. act. in data set [2] (setting [8]) is on record as 56.7 nmoles/min/g wet weight; in data set [3] (setting [8]), 7.0 nmoles/min/g wet weight; in data set [4] (setting [8]) it was 642 nmoles/min/g wet weight; in data set [5] (setting [8]), 12.5 nmoles/min/g wet weight. The Tot. act. came to 0.80 µmol/min in data set [2] (setting [8]), 0.01 µmol/min in data set [3] (setting [8]), 12.9 µmol/min in data set [4] (setting [8]) and 0.01 µmol/min in data set [5] (setting [8]). Further, the Km in data set [1] (setting [11]) worked out at 33.3 µM. Besides, the Vmax in data set [1] (setting [11]) was 20.6 µM/min/g.

`CC1CC2C3CCC4=CC(=O)C=CC4(C)C3(F)C(O)CC2(C)C1(O)C(=O)COC1OC(CO)C(O)C(O)C1O` [Compound 9, 9 alpha-Fluoro-11 beta, 17 alpha-dihydroxy-16 alpha-methyl-3, 20-dioxopregna-1,4-dien-21-yl beta-D-galactopyranoside]: the Sp. act. in data set [2] (setting [8]) is listed as 29.3 nmoles/min/g wet weight; in data set [3] (setting [8]), 2.0 nmoles/min/g wet weight; in data set [4] (setting [8]), 322 nmoles/min/g wet weight; in data set [5] (setting [8]), 11.7 nmoles/min/g wet weight. Moreover, the Tot. act. in data set [2] (setting [8]) came out at 0.41 µmol/min; in data set [3] (setting [8]) it was 0.004 µmol/min; in data set [4] (setting [8]), 6.5 µmol/min; in data set [5] (setting [8]), 0.004 µmol/min. Moreover, in data set [2] (homogenates of DSI contents), the “hydrolysis by DSI contents, comparison in words” value is recorded as “more resistant to hydrolysis than the other prodrugs”. For the same compound, the Km in data set [1] (setting [12]) is 13.3 µM. Further, the Vmax in data set [1] (setting [12]) was found to be 3.9 µM/min/g.

`C[C@@H]1C[C@H]2[C@@H]3CCC4=CC(=O)C=C[C@]4(C)[C@@]3(F)[C@@H](O)C[C@]2(C)[C@@]1(O)C(=O)CO` [Compound 3, 9 alpha-Fluoro-11 beta, 17 alpha-21 trihydroxy-16 alpha-methyl-3, 20-dioxopregna-1,4-diene, reference compound] came in with a recovery at 3 h in data set [6] of 3.9%. In addition, in data set [6] (5 h), the “free steroid recovered in the cecum, as equivalent of the administered dose” value was 44%.

As to `CC12C=CC(=O)C=C1CCC1C2C(O)CC2(C)C1CCC2(O)C(=O)COC1OC(CO)C(O)C(O)C1O` [Compound 10, 11 beta, 17 alpha-dihydroxy-3,20-dioxopregna-l,4-dien-21-yl beta-D-galactopyranoside], the Sp. act. came to 122 nmoles/min/g wet weight in data set [2] (setting [8]), 12.1 nmoles/min/g wet weight in data set [3] (setting [8]), 665 nmoles/min/g wet weight in data set [4] (setting [8]) and 49.3 nmoles/min/g wet weight in data set [5] (setting [8]). Also, the Tot. act. in data set [2] (setting [8]) turned out to be 1.72 µmol/min; in data set [3] (setting [8]), 0.19 µmol/min; in data set [4] (setting [8]) it was 13 µmol/min; in data set [5] (setting [8]), 0.23 µmol/min. Also, the Km in data set [1] (setting [13]) is 20 µM. The Vmax in data set [1] (setting [13]) was 10.3 µM/min/g.

Consider `O=[N+]([O-])c1ccc(O[C@@H]2O[C@H](CO)[C@@H](O[C@@H]3O[C@H](CO)[C@@H](O)[C@H](O)[C@H]3O)[C@H](O)[C@H]2O)cc1` [p-NP-cel, p-nitrophenyl-beta-D-cellobioside, reference compound], for which the Sp. act. in data set [2] (setting [14]) turned out to be 26.0 nmoles/min/g wet weight; in data set [3] (setting [15]) it was 34.2 nmoles/min/g wet weight; in data set [4] (setting [14]), 96.5 nmoles/min/g wet weight; in data set [5] (setting [14]) it was 7.2 nmoles/min/g wet weight. The Tot. act. in data set [2] (setting [14]) was 0.25 µmol/min; in data set [3] (setting [15]), 0.35 µmol/min; in data set [4] (setting [14]), 2.6 µmol/min; in data set [5] (setting [14]) it was 0.05 µmol/min.

On to `O=[N+]([O-])c1ccc(O[C@@H]2O[C@H](CO)[C@@H](O)[C@H](O)[C@H]2O)cc1` [p-NP-glc, p-nitrophenyl-beta-D-glucoside, reference compound], for which, in data set [1] (setting [7]), the Km was determined as 360 µM and the Vmax came to 697 µM/min/g.

For the origin of these results see patent publication EP0123485A1, “Colon-specific prodrug, the preparation and uses thereof” (priority 1983, dated 1984).
